According to patent US8846719B2, “Isoxazolo-pyridine derivatives” (Roche Palo Alto LLC, priority 2007, dated 2014):
pKi: −log10 of the molar value.

Biological target: human GABA A receptor α5β3γ2 (Homo sapiens (Human), UniProt P18507+P31644)
Experiment: [3H]flumazenil competition binding assay, human GABA A α5β3γ2 receptors expressed in HEK293 cells
Settings: human receptor; displacement of [3H]flumazenil (0.5 nM); means of two determinations; read-out: hKi GABAAa5
Method in brief: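 Competition for [3H]flumazenil binding on membranes of HEK293 cells transiently transfected with human α5β3γ2 receptors, in Krebs-tris buffer pH 7.5.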

Row | Structure (SMILES) | pKi
1 | Cc1onc(-c2ccccc2)c1COc1ccc(C(=O)N2CC(O)C2)cn1 [Example 191, (3-Hydroxy-azetidin-1-yl)-[6-(5-methyl-3-phenyl-isoxazol-4-ylmethoxy)-pyridin-3-yl]-methanone] | 8.30
2 | Cc1onc(-c2ccccc2)c1COc1ccc(C(=O)NC2CCCCC2O)cn1 (stereo not shown) [Example 192, N-(2-Hydroxy-cyclohexyl)-6-(5-methyl-3-phenyl-isoxazol-4-ylmethoxy)-nicotinamide] | 8.54
3 | Cc1onc(-c2ccccc2)c1COc1ccc(C(=O)N[C@@H]2CCCC[C@H]2O)cn1 [Example 197, N-((1R,2R)-2-Hydroxy-cyclohexyl)-6-(5-methyl-3-phenyl-isoxazol-4-ylmethoxy)-nicotinamide] | 7.96
4 | Cc1onc(-c2ccccc2)c1COc1ccc(C(=O)N[C@H]2CCCC[C@@H]2O)cn1 [Example 198, N-((1S,2S)-2-Hydroxy-cyclohexyl)-6-(5-methyl-3-phenyl-isoxazol-4-ylmethoxy)-nicotinamide] | 8.19
5 | Cc1onc(-c2ccccc2)c1COc1ccc(C(=O)NC2CCCC2O)cn1 (stereo not shown) [Example 200, N-(2-Hydroxy-cyclopentyl)-6-(5-methyl-3-phenyl-isoxazol-4-ylmethoxy)-nicotinamide] | 8.41
6 | Cc1onc(-c2ccccc2)c1COc1ccc(C(=O)NC(CO)CO)cn1 [Example 201, N-(2-Hydroxy-1-hydroxymethyl-ethyl)-6-(5-methyl-3-phenyl-isoxazol-4-ylmethoxy)-nicotinamide] | 8.77
7 | CC(=O)NCCNC(=O)c1ccc(OCc2c(-c3ccccc3)noc2C)nc1 [Example 205, N-(2-Acetylamino-ethyl)-6-(5-methyl-3-phenyl-isoxazol-4-ylmethoxy)-nicotinamide] | 8.40
8 | Cc1onc(-c2ccccc2)c1COc1ccc(C(=O)N[C@H](CO)C(C)C)cn1 [Example 206, N—((S)-1-Hydroxymethyl-2-methyl-propyl)-6-(5-methyl-3-phenyl-isoxazol-4-ylmethoxy)-nicotinamide] | 8.74
9 | Cc1onc(-c2ccccc2)c1COc1ccc(C(=O)N[C@H](CO)CC(C)C)cn1 [Example 207, N—((S)-1-Hydroxymethyl-3-methyl-butyl)-6-(5-methyl-3-phenyl-isoxazol-4-ylmethoxy)-nicotinamide] | 7.96
10 | Cc1onc(-c2ccccc2)c1COc1ccc(C(=O)NCCN2CCNC2=O)cn1 [Example 214, 6-(5-Methyl-3-phenyl-isoxazol-4-ylmethoxy)-N-[2-(2-oxo-imidazolidin-1-yl)-ethyl]-nicotinamide] | 8.37
11 | Cc1onc(-c2ccccc2)c1COc1ccc(C(=O)NC2CN(C(=O)OC(C)(C)C)C2)cn1 [Example 216, 3-{[6-(5-Methyl-3-phenyl-isoxazol-4-ylmethoxy)-pyridine-3-carbonyl]-amino}-azetidine-1-carboxylic acid tert-butyl ester] | 8.35
12 | Cc1onc(-c2ccccc2)c1COc1ccc(C(=O)NCCNC(=O)OC(C)(C)C)cn1 [Example 217, (2-{[6-(5-Methyl-3-phenyl-isoxazol-4-ylmethoxy)-pyridine-3-carbonyl]-amino}-ethyl)-carbamic acid tert-butyl ester] | 8.08
13 | Cc1onc(-c2ccccc2)c1COc1ccc(C(=O)NCCCCO)cn1 [Example 220, N-(4-Hydroxy-butyl)-6-(5-methyl-3-phenyl-isoxazol-4-ylmethoxy)-nicotinamide] | 8.59
14 | Cc1onc(-c2ccccc2)c1COc1ccc(C(=O)NCCCCCO)cn1 [Example 221, N-(5-Hydroxy-pentyl)-6-(5-methyl-3-phenyl-isoxazol-4-ylmethoxy)-nicotinamide] | 8.39
15 | Cc1onc(-c2ccccc2)c1COc1ccc(C(=O)NCCCCCCO)cn1 [Example 222, N-(6-Hydroxy-hexyl)-6-(5-methyl-3-phenyl-isoxazol-4-ylmethoxy)-nicotinamide] | 8.09
16 | Cc1onc(-c2ccccc2)c1COc1ccc(C(=O)N2CCC(O)C2)cn1 (stereo not shown) [Example 223, (3-Hydroxy-pyrrolidin-1-yl)-[6-(5-methyl-3-phenyl-isoxazol-4-ylmethoxy)-pyridin-3-yl]-methanone] | 7.58
17 | Cc1onc(-c2ccccc2)c1COc1ccc(C(=O)N2CCC[C@H]2CO)cn1 [Example 224] | 7.38
18 | Cc1onc(-c2ccccc2)c1COc1ccc(C(=O)N2CCC[C@@H]2CO)cn1 [Example 225] | 7.69
19 | Cc1onc(-c2ccccc2)c1COc1ccc(C(=O)NC2CC(OCc3ccccc3)C2)cn1 (stereo not shown) [Example 226, N-(3-Benzyloxy-cyclobutyl)-6-(5-methyl-3-phenyl-isoxazol-4-ylmethoxy)-nicotinamide] | 8.59
20 | Cc1onc(-c2ccccc2)c1COc1ccc(C(=O)N2CCCC2C)cn1 (stereo not shown) [Example 227, [6-(5-Methyl-3-phenyl-isoxazol-4-ylmethoxy)-pyridin-3-yl]-(2-methyl-pyrrolidin-1-yl)-methanone] | 7.32
21 | Cc1onc(-c2ccccc2)c1COc1ccc(C(=O)N2CCCC2)cn1 [Example 228, [6-(5-Methyl-3-phenyl-isoxazol-4-ylmethoxy)-pyridin-3-yl]-pyrrolidin-1-yl-methanone] | 7.43
22 | COC(=O)[C@H](Cc1ccccc1)NC(=O)c1ccc(OCc2c(-c3ccccc3)noc2C)nc1 [Example 229, (S)-2-{[6-(5-Methyl-3-phenyl-isoxazol-4-ylmethoxy)-pyridine-3-carbonyl]-amino}-3-phenyl-propionic acid methyl ester] | 7.32
23 | Cc1onc(-c2ccccc2)c1COc1ccc(C(=O)N[C@@H](Cc2ccccc2)C(=O)O)cn1 [Example 231, (S)-2-{[6-(5-Methyl-3-phenyl-isoxazol-4-ylmethoxy)-pyridine-3-carbonyl]-amino}-3-phenyl-propionic acid] | 7.55
24 | CCCCS(=O)(=O)NC(=O)c1ccc(OCc2c(-c3ccccc3)noc2C)nc1 [Example 233, Butane-1-sulfonic acid [6-(5-methyl-3-phenyl-isoxazol-4-ylmethoxy)-pyridine-3-carbonyl]-amide] | 7.49
25 | Cc1onc(-c2ccccc2)c1COc1ccc(C(=O)N(C)S(=O)(=O)C2CC2)cn1 [Example 236, Cyclopropanesulfonic acid methyl-[6-(5-methyl-3-phenyl-isoxazol-4-ylmethoxy)-pyridine-3-carbonyl]-amide] | 7.44

The remaining molecules from weak to strong by pKi, led by results:

Row | pKi | Structure (SMILES)
26 | 8.64 | Cc1onc(-c2ccccc2)c1COc1ccc(C(=O)NCC(C)(C)O)cn1 [Example 193, N-(2-Hydroxy-2-methyl-propyl)-6-(5-methyl-3-phenyl-isoxazol-4-ylmethoxy)-nicotinamide]
27 | 8.64 | CC[C@H](CO)NC(=O)c1ccc(OCc2c(-c3ccccc3)noc2C)nc1 [Example 209, N—((R)-1-Hydroxymethyl-propyl)-6-(5-methyl-3-phenyl-isoxazol-4-ylmethoxy)-nicotinamide]
28 | 8.64 | Cc1onc(-c2ccccc2)c1COc1ccc(C(=O)NCCC(C)O)cn1 (stereo not shown) [Example 215, N-(3-Hydroxy-butyl)-6-(5-methyl-3-phenyl-isoxazol-4-ylmethoxy)-nicotinamide]
29 | 8.66 | Cc1onc(-c2ccccc2)c1COc1ccc(C(=O)NCCCO)cn1 [Example 219, N-(3-Hydroxy-propyl)-6-(5-methyl-3-phenyl-isoxazol-4-ylmethoxy)-nicotinamide]
30 | 8.68 | Cc1onc(-c2ccccc2)c1COc1ccc(C(=O)NCC2(O)CC2)cn1 [Example 194, N-(1-Hydroxy-cyclopropylmethyl)-6-(5-methyl-3-phenyl-isoxazol-4-ylmethoxy)-nicotinamide]
31 | 8.70 | Cc1onc(-c2ccccc2)c1COc1ccc(C(=O)NCC(O)CO)cn1 (stereo not shown) [Example 218, N-(2,3-Dihydroxy-propyl)-6-(5-methyl-3-phenyl-isoxazol-4-ylmethoxy)-nicotinamide]
32 | 8.72 | Cc1onc(-c2ccccc2)c1COc1ccc(C(=O)N[C@@H](C)C(F)(F)F)cn1 [Example 235, 6-(5-Methyl-3-phenyl-isoxazol-4-ylmethoxy)-N—((S)-2,2,2-trifluoro-1-methyl-ethyl)-nicotinamide]
33 | 8.77 | Cc1onc(-c2ccccc2)c1COc1ccc(C(=O)N[C@H](C)CO)cn1 [Example 195, N—((R)-2-Hydroxy-1-methyl-ethyl)-6-(5-methyl-3-phenyl-isoxazol-4-ylmethoxy)-nicotinamide]
34 | 8.80 | Cc1onc(-c2ccccc2)c1COc1ccc(C(=O)N[C@H]2CCOC2)cn1 [Example 202, 6-(5-Methyl-3-phenyl-isoxazol-4-ylmethoxy)-N—(S)-tetrahydro-furan-3-yl-nicotinamide]
35 | 8.85 | Cc1onc(-c2ccccc2)c1COc1ccc(C(=O)NC2(C)COC2)cn1 [Example 232, N-(3-Methyl-oxetan-3-yl)-6-(5-methyl-3-phenyl-isoxazol-4-ylmethoxy)-nicotinamide]
36 | 8.92 | Cc1onc(-c2ccccc2)c1COc1ccc(C(=O)NC2CC(OCc3ccccc3)C2)cn1 (stereo not drawn) [Example 230, (cis or trans)-N-(3-Benzyloxy-cyclobutyl)-6-(5-methyl-3-phenyl-isoxazol-4-ylmethoxy)-nicotinamide]
37 | 8.96 | Cc1onc(-c2ccccc2)c1COc1ccc(C(=O)Nc2cnn(C)c2)cn1 [Example 237, 6-(5-Methyl-3-phenyl-isoxazol-4-ylmethoxy)-N-(1-methyl-1H-pyrazol-4-yl)-nicotinamide]
38 | 9.15 | Cc1onc(-c2ccccc2)c1COc1ccc(C(=O)N[C@@H](C)CO)cn1 [Example 196, N—((S)-2-Hydroxy-1-methyl-ethyl)-6-(5-methyl-3-phenyl-isoxazol-4-ylmethoxy)-nicotinamide]
39 | 9.15 | CC[C@@H](CO)NC(=O)c1ccc(OCc2c(-c3ccccc3)noc2C)nc1 [Example 208, N—((S)-1-Hydroxymethyl-propyl)-6-(5-methyl-3-phenyl-isoxazol-4-ylmethoxy)-nicotinamide]
40 | 9.22 | Cc1onc(-c2ccccc2)c1COc1ccc(C(=O)NC(C)C(F)(F)F)cn1 (stereo not shown) [Example 234, 6-(5-Methyl-3-phenyl-isoxazol-4-ylmethoxy)-N-(2,2,2-trifluoro-1-methyl-ethyl)-nicotinamide]
